The structures appear in SMILES notation.

Among the data in article PMC3200564 (European journal of nuclear medicine and molecular imaging, 2011) are IC50 values, retold here.

One experiment addresses TEM8 (293-TEM8 cells) (Homo sapiens, UniProt Q9H6X2). Nature of the experiment: biochemical. Format: binding.
In experiment [1] the target is T1, extracellular vWA domain of TEM8 (Homo sapiens, UniProt Q9H6X2).
T1 sequence (Q9H6X2 44-215 limits assumed): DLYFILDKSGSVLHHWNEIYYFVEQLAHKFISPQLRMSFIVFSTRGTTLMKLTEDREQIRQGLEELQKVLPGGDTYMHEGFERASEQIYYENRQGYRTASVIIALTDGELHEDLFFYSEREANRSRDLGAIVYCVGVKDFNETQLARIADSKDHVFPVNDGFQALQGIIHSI
Nature of the experiment: biochemical. Format: binding.

Sequence of TEM8 (293-TEM8 cells) (Q9H6X2 33-564): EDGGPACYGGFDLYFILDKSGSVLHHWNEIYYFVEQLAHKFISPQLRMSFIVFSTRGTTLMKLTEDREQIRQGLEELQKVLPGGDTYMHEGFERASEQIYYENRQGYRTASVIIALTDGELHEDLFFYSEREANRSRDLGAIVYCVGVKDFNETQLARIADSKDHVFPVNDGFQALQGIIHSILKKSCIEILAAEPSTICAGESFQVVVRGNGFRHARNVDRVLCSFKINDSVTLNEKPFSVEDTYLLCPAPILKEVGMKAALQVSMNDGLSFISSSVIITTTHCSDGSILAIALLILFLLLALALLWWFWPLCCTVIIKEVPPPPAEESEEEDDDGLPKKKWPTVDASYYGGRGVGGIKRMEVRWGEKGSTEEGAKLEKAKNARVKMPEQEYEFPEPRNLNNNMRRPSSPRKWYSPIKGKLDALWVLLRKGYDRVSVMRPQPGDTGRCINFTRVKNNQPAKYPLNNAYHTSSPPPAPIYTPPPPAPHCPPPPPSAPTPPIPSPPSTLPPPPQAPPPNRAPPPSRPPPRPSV

As to `CC[C@H](C)[C@H](NC(=O)[C@H](Cc1ccc(O)cc1)NC(=O)[C@H](CC(C)C)NC(=O)[C@@H]1CCCN1C(=O)[C@H](CC(C)C)NC(=O)[C@H](CCCNC(=N)N)NC(=O)[C@H](CC(=O)O)NC(=O)[C@H](CC(N)=O)NC(=O)[C@H](Cc1ccc(O)cc1)NC(=O)[C@@H](N)CCCCN)C(=O)N[C@@H](CO)C(=O)N[C@@H](CC(N)=O)C(=O)N1CCC[C@H]1C(=O)O` [QQM, KYNDRLPLYISNP], the IC50 against TEM8 (293-TEM8 cells) is 33 nM; in experiment [1], 304 nM.

As a reminder, the IC50 is the concentration needed to halve the response being measured.
